Results reported in ChEMBL document CHEMBL5678800 (Mol Cancer Ther, 2009).
Activity calls are given as the source filed them. No cut-off for these calls is given here.

What was measured:
[1] = Toxicity in nude mouse xenografted with human GEO cells assessed as body weight loss at 6.25 mg/kg, po administered for 3 days in presence of cetuximab at 0.125 mg/kg relative to control; assay type: organism-based; conditions: in vivo, 72 h, time 3 day
[2] = Toxicity in nude mouse xenografted with human GEO cells assessed as body weight loss at 25 mg/kg, po administered for 3 days in presence of cetuximab at 0.125 mg/kg relative to control; assay type: organism-based; conditions: in vivo, 72 h, time 3 day
[3] = Toxicity in nude mouse xenografted with human GEO cells assessed as mortality at 25 mg/kg, po administered for 3 days in presence of cetuximab at 0.125 mg/kg relative to control; assay type: organism-based; conditions: in vivo, time 3 day
GEO [4] = assay: Antitumor activity against human GEO cells xenografted in nude mouse assessed as tumor growth delay time at 6.25 mg/kg, po administered for 3 days in presence of cetuximab at 0.125 mg/kg relative to control; assay type: functional; conditions: time 3 day
Rh41 [5] = assay: Antitumor activity against human Rh41 cells xenografted in nude mouse assessed as tumor growth inhibition at 3.1 to 25 mg/kg, po administered for 14 days relative to control; assay type: functional; conditions: dose 3.1-25 mg/kg, time 14 day
Mus musculus [6] = assay: Anti-diabetic activity against nude mouse xenografted with mouse IGF-1R-Sal cells assessed as increased serum glucose level at 12.5 mg/kg, po administered for 2 hrs by oral glucose tolerance test (Rvb= 97.40 +/- 5.0 mg/dl); assay type: functional
[7] = target: Protein kinase C alpha type (Homo sapiens, UniProt P17252); assay: Inhibition of recombinant PKCalpha (unknown origin) incubated for 60 mins in presence of ATP by electrophoretic caliper fluorescence analysis
[8] = Antitumor activity against mouse IGF-1R-Sal cells xenografted in nude mouse assessed as tumor growth inhibition at 6.25 to 150 mg/kg, po administered for 4 days relative to control; assay type: functional; conditions: dose 6.25-150 mg/kg, time 4 day
[9] = Toxicity in nude mouse xenografted with human GEO cells assessed as mortality at 6.25 mg/kg, po administered for 17 days relative to control; assay type: organism-based; conditions: in vivo, time 17 day
GEO [10] = assay: Antitumor activity against human GEO cells xenografted in nude mouse assessed as tumor growth delay time at 12.5 mg/kg, po administered for 17 days relative to control; assay type: functional; conditions: time 17 day
[11] = Toxicity in nude mouse xenografted with human GEO cells assessed as body weight loss at 12.5 mg/kg, po administered for 3 days in presence of cetuximab at 0.25 mg/kg relative to control; assay type: organism-based; conditions: in vivo, 72 h, time 3 day
Mus musculus [12] = assay: Anti-diabetic activity against nude mouse xenografted with mouse IGF-1R-Sal cells assessed as increased serum glucose level at 25 mg/kg, po administered for 2 hrs by oral glucose tolerance test (Rvb= 97.40 +/- 5.0 mg/dl); assay type: functional
RD1 = assay: Antitumor activity against human RD1 cells xenografted in nude mouse assessed as tumor growth inhibition at 50 mg/kg, po administered for 14 days relative to control; conditions: 336 h, read-out: TGI
[13] = Plasma concentration in nude mouse xenografted with mouse IGF-1R-Sal cells po administered for 2 hrs by LC-MS/MS analysis
[14] = Toxicity in nude mouse xenografted with human GEO cells assessed as mortality at 12.5 mg/kg, po administered for 17 days relative to control; assay type: organism-based; conditions: in vivo, time 17 day
[15] = Plasma concentration in nude mouse xenografted with mouse IGF-1R-Sal cells at 3.125 mg/kg, po administered for 2 hrs by LC-MS/MS analysis; assay type: ADME, organism-based
IGF-1R-Sal = assay: In vivo inhibition of IGF-1R phosphorylation in mouse IGF-1R-Sal cells xenografted in nude mouse at 12.5 mg/kg, po administered for 8 to 24 hrs by Western blotting analysis; assay type: functional, organism-based; conditions: time lower 8.0 hrs, time upper […]
GEO [16] = assay: Antitumor activity against human GEO cells xenografted in nude mouse assessed as tumor growth inhibition at 25 mg/kg, po administered for 17 days relative to control; assay type: functional; conditions: 408 h, time 17 day, read-out: TGI
GEO [17] = assay: Antitumor activity against human GEO cells xenografted in nude mouse assessed as tumor growth inhibition at 25-50 mg/kg, po administered for 14 days relative to control; assay type: functional; conditions: 336 h, time 14 day, read-out: TGI
Rh41 [18] = assay: Induction of cell cycle arrest in human Rh41 cells assessed as accumulation of cells at G2/M phase by measuring >4N DNA content at 10x IC50 incubated for 48 hrs by propidium iodide staining based flow cytometry analysis; assay type: functional
[19] = Toxicity in nude mouse xenografted with human GEO cells assessed as body weight loss at 25 mg/kg, po administered for 17 days; assay type: organism-based; conditions: in vivo, 408 h, time 17 day
GEO [20] = assay: Antitumor activity against human GEO cells xenografted in nude mouse assessed as tumor growth inhibition at 25 mg/kg, po administered for 3 days in presence of cetuximab at 0.125 mg/kg relative to control; assay type: functional; conditions: 72 h, time 3 day, read-out: TGI
[21] = Toxicity in nude mouse xenografted with human GEO cells assessed as mortality at 12.5 mg/kg, po administered for 3 days in presence of cetuximab at 0.125 mg/kg relative to control; assay type: organism-based; conditions: in vivo, time 3 day
GEO [22] = assay: Antitumor activity against human GEO cells xenografted in nude mouse assessed as tumor growth inhibition at 6.25 mg/kg, po administered for 17 days relative to control; assay type: functional; conditions: 408 h, time 17 day, read-out: TGI
[23] = Toxicity in nude mouse xenografted with human GEO cells assessed as mortality at 6.25 mg/kg, po administered for 3 days in presence of cetuximab at 0.125 mg/kg relative to control; assay type: organism-based; conditions: in vivo, time 3 day
GEO [24] = assay: Antitumor activity against human GEO cells xenografted in nude mouse assessed as tumor growth delay time at 25 mg/kg, po administered for 17 days relative to control; assay type: functional; conditions: time 17 day
[25] = Toxicity in nude mouse xenografted with human GEO cells assessed as body weight loss at 12.5 mg/kg, po administered for 3 days in presence of cetuximab at 0.125 mg/kg relative to control; assay type: organism-based; conditions: in vivo, 72 h, time 3 day
GEO [26] = assay: Antitumor activity against human GEO cells xenografted in nude mouse assessed as tumor growth delay time at 12.5 mg/kg, po administered for 3 days in presence of cetuximab at 0.25 mg/kg relative to control; assay type: functional; conditions: time 3 day
Rh41 [27] = assay: Induction of cell cycle arrest in human Rh41 cells assessed as accumulation of cells at G2/M phase at 10x IC50 incubated for 48 hrs by propidium iodide staining based flow cytometry analysis relative to control; assay type: functional

Q: With `C[C@@]1(C(=O)Nc2ccc(F)nc2)CCCN1c1nc(Nc2cc(C3CC3)n[nH]2)c2cccn2n1` [BMS-754807] as the compound, how does the Activity [1] read?
A: The Activity was 1.2 g.

Q: What about the Activity [2] of the same compound?
A: The Activity was 0.6 g.

Q: And the mortality at 72 h [3]?
A: Its mortality at 72 h is 0%.

Q: And the Time (GEO [4])?
A: The Time was 20 days.

Q: What about the TGI (Rh41 [5]) of the same compound?
A: The TGI was 65%.

Q: What about the Activity (Mus musculus [6]) of the same compound?
A: Its Activity is 89 mg/dL.

Q: What about the IC50 [7] of the same compound?
A: Its IC50 is 2.53 µM.

Q: And the TGI [8]?
A: The TGI was 67%.

Q: And the mortality at 408 h [9]?
A: Its mortality at 408 h is 0%.

Q: And the Time (GEO [10])?
A: Its Time is 4 days.

Q: And the Activity [11]?
A: The Activity was 1.2 g.

Q: What about the Activity (Mus musculus [12]) of the same compound?
A: Its Activity is 95 mg/dL.

Q: What about the inhibition in vivo at 50 mg/kg (RD1) of the same compound?
A: Its inhibition in vivo at 50 mg/kg is 58%.

Q: What about the concentration at 2 h [13] of the same compound?
A: Its concentration at 2 h is 94 nM.

Q: And the mortality at 408 h [14]?
A: The mortality at 408 h was 0%.

Q: And the concentration at 2 h [15]?
A: The concentration at 2 h was 7 nM.

Q: And the inhibition (IGF-1R-Sal)?
A: Its inhibition is “Active”.

Q: What about the inhibition in vivo at 25 mg/kg (GEO [16]) of the same compound?
A: Its inhibition in vivo at 25 mg/kg is 61%.

Q: And the inhibition in vivo at 50 mg/kg (GEO [17])?
A: Its inhibition in vivo at 50 mg/kg is 41%.

Q: What about the Activity (Rh41 [18]) of the same compound?
A: The Activity was “Active”.

Q: What about the Activity [19] of the same compound?
A: The Activity was -1.5 g.

Q: What about the inhibition in vivo at 25 mg/kg (GEO [20]) of the same compound?
A: The inhibition in vivo at 25 mg/kg was 89%.

Q: And the mortality at 72 h [21]?
A: The mortality at 72 h was 0%.

Q: And the inhibition in vivo at 6.25 mg/kg (GEO [22])?
A: The inhibition in vivo at 6.25 mg/kg was 24%.

Q: What about the mortality at 72 h [23] of the same compound?
A: Its mortality at 72 h is 0%.

Q: And the Time (GEO [24])?
A: Its Time is 7 days.

Q: What about the Activity [25] of the same compound?
A: Its Activity is 0.4 g.

Q: What about the Time (GEO [26]) of the same compound?
A: Its Time is 38 days.

Q: What about the Activity (Rh41 [27]) of the same compound?
A: Its Activity is 2.8%.
